Assay results: patent publication US10669272B2, “Substituted naphthyridinone compounds useful as T cell activators” (BRISTOL-MYERS SQUIBB COMPANY, priority 2018, dated 2020)
Where two headings read alike, the source gives them in different places.

Columns and labels:
human DGKα = molecular target: T1, human DGKα (Homo sapiens, UniProt P23743); assay: DGKα LIPGLO assay (extruded liposome substrate), in vitro DGK inhibition; format: biochemical; settings: liposome (LIPGLO) assay; read-out: DGKa LIPGLO IC50
T1 construct: TVMV protease cleavage site (C); Hexa-His (C); made in house; host or cells: Sf9 insect cells (baculovirus, Bac-to-Bac)

human DGKζ = molecular target: T2, human DGKζ (Homo sapiens, UniProt Q13574); assay: DGKζ LIPGLO assay (extruded liposome substrate), in vitro DGK inhibition; format: biochemical; settings: liposome (LIPGLO) assay; read-out: DGKz LIPGLO IC50
T2 construct: TVMV protease cleavage site (C); Hexa-His (C); made in house; host or cells: Sf9 insect cells (baculovirus, Bac-to-Bac)

Human venous whole blood = assay: Human whole blood IFN-γ assay; format: cell-based; settings: human whole blood, normalized to 3 μM reference compound with anti-CD3 plus anti-CD28 as 100% activation, read-out: INFg Whole Blood Normalized Agonist EC50;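 note: blood from healthy donors exposed to compound for 1 h before stimulation with anti-CD3 and anti-CD28 at 1 µg/mL each, IFN-γ quantified in supernatant by AlphaLISA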

T2 sequence (Q13574 with tags, fused parts or gaps isoform Q13574-4): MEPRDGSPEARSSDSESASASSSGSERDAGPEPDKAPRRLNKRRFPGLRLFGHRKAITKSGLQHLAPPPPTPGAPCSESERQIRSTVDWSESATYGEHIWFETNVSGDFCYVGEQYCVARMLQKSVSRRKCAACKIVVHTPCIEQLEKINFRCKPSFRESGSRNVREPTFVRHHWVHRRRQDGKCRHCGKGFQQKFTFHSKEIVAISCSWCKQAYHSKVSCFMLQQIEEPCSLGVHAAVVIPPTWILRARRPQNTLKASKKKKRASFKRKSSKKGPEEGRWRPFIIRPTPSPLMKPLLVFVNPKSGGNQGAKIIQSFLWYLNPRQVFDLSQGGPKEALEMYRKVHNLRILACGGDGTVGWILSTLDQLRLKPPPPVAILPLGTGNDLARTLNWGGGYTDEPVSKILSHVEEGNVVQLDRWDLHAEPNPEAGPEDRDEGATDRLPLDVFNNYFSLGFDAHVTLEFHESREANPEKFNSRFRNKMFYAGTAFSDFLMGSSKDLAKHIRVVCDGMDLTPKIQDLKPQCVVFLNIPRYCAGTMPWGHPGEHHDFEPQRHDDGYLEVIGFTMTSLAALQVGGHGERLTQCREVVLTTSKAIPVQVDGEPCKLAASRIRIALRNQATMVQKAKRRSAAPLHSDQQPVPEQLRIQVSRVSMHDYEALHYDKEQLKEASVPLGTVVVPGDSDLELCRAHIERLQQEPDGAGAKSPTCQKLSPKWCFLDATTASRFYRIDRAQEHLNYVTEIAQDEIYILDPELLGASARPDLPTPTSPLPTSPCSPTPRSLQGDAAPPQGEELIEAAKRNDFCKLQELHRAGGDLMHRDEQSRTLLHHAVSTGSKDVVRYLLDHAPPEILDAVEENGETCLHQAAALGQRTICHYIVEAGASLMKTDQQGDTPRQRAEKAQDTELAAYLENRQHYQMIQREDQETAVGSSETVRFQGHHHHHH
T1 sequence (P23743 with tags, fused parts or gaps): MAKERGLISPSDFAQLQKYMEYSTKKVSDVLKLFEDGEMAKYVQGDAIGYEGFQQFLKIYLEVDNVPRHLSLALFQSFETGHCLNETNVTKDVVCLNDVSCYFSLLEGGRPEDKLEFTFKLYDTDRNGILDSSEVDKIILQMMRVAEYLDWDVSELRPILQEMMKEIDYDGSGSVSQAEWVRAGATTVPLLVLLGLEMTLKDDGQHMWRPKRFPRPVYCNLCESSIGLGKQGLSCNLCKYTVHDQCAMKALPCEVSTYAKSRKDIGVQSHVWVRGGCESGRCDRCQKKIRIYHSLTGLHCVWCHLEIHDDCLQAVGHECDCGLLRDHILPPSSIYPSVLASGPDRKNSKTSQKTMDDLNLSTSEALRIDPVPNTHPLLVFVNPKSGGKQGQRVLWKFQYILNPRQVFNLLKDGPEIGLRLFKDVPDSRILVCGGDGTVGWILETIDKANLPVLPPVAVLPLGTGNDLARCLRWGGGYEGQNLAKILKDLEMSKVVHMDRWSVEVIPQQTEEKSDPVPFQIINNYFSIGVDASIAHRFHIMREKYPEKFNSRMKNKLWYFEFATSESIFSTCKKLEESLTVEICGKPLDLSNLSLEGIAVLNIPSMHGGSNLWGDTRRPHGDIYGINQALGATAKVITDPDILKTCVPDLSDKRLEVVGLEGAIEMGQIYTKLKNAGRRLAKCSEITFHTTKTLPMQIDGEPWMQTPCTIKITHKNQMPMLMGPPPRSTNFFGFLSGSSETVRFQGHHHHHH

Row | Compound | IC50 (human DGKα) [nM] | IC50 (human DGKζ) [nM] | EC50 (Human venous whole blood) [nM] | EC50 (Human venous whole blood; Homo sapiens, 24 h) [nM]
1 | CC[C@@H]1CN(c2cc(=O)n(C)c3ccc(C#N)nc23)[C@@H](C)CN1C(C)c1ccc(OC(C)C)cc1 (single isomer, unassigned) [Example 1349] | 5400 | 2200 | 580 | 
2 | CC[C@@H]1CN(c2cc(=O)n(C)c3ccc(C#N)nc23)[C@@H](C)CN1C(C)c1ccc(OC)cc1 (single isomer, unassigned) [Example 1351] | 1100 | 780 | 740 | 
3 | CC[C@H]1CN(C(C)c2ccc(C3CC3)cc2)[C@H](CC)CN1c1cc(=O)n(C)c2ccc(C#N)nc12 (single isomer, unassigned) [Example 1356] | 1900 | 3400 | 1300 | 
4 | CC[C@H]1CN(C(C)c2ccc(C3CC3)cc2F)[C@H](CC)CN1c1cc(=O)n(C)c2ccc(C#N)nc12 (single isomer, unassigned) [Example 1358] | 1700 | 680 |  | 1200
5 | CCC(c1ccc(C2CC2)cc1F)N1C[C@H](CC)N(c2cc(=O)n(C)c3ccc(C#N)nc23)C[C@H]1CC (single isomer, unassigned) [Example 1360] | 830 | 110 | 700 | 
6 | CC[C@H]1CN(C(C)c2ccc(C(F)(F)F)cc2F)[C@H](CC)CN1c1cc(=O)n(C)c2ccc(C#N)nc12 (single isomer, unassigned) [Example 1365] | 480 | 480 | 2200 | 
7 | CC[C@H]1CN(C(C)c2ccc(OC)cc2)[C@H](CC)CN1c1cc(=O)n(C)c2ccc(C#N)nc12 (single isomer, unassigned) [Example 1367] | 170 | 2900 | 1900 | 
8 | CC[C@H]1CN(C(C)c2ccc3c(c2)OC(F)(F)O3)[C@H](CC)CN1c1cc(=O)n(C)c2ccc(C#N)nc12 (single isomer, unassigned) [Example 1368] | 330 | 34 | 63 | 
9 | CC[C@H]1CN(C(C)c2ccc3c(c2)OC(F)(F)O3)[C@H](CC)CN1c1cc(=O)n(C)c2ccc(C#N)nc12 (single isomer, unassigned) [Example 1369] | 1400 | 750 | 1300 | 
10 | CC[C@H]1CN(C(C)c2ccc(OC(F)(F)F)cc2F)[C@H](CC)CN1c1cc(=O)n(C)c2ccc(C#N)nc12 (single isomer, unassigned) [Example 1372] | 460 | 1700 | 1400 | 
11 | CC[C@H]1CN(C(C)c2ccc(OC(F)F)cc2)[C@H](CC)CN1c1cc(=O)n(C)c2ccc(C#N)nc12 (single isomer, unassigned) [Example 1374] | 290 | 280 | 2700 | 
12 | CC(c1ccc(OC(F)F)cc1)N1C[C@H](C)N(c2c(C#N)c(=O)n(C)c3ccc(C#N)nc23)C[C@H]1C (single isomer, unassigned) [Example 1375] | 190 | 890 |  | 1800
13 | CCC(c1ccc(OC(F)(F)F)cc1F)N1C[C@H](CC)N(c2cc(=O)n(C)c3ccc(C#N)nc23)C[C@H]1C (single isomer, unassigned) [Example 1378] | 1400 | 2800 | 9500 | 
14 | CCC(c1cc(OC(F)(F)F)ccc1F)N1C[C@H](CC)N(c2cc(=O)n(C)c3ccc(C#N)nc23)C[C@H]1C (single isomer, unassigned) [Example 1380] | 850 | 180 | 470 | 
15 | CCC(c1cc(OC(F)(F)F)ccc1F)N1C[C@H](CC)N(c2cc(=O)n(C)c3ccc(C#N)nc23)C[C@H]1C (single isomer, unassigned) [Example 1381] | 19000 | 2100 | 20000 | 
16 | CC[C@H]1CN(C(C)c2cc(F)c(F)c(F)c2)[C@H](C)CN1c1cc(=O)n(C)c2ccc(C#N)nc12 (single isomer, unassigned) [Example 1383] | 970 | 480 |  | 7000
17 | CC(c1ccc(OC(F)(F)F)cc1)N1C[C@H](C)N(c2cc(=O)n(C)c3ccc(C#N)nc23)C[C@H]1CO (single isomer, unassigned) [Example 1387] | 2600 | 12000 | 20000 | 
18 | C[C@H]1CN(C(c2ccc(F)cc2)c2ccc(C(F)(F)F)cn2)[C@H](CO)CN1c1cc(=O)n(C)c2ccc(C#N)nc12 (single isomer, unassigned) [Example 1388] | 1100 | 2800 |  | 880
19 | C[C@H]1CN(C(c2ccc(F)cc2)c2ccc(C(F)(F)F)cn2)[C@H](CO)CN1c1cc(=O)n(C)c2ccc(C#N)nc12 (single isomer, unassigned) [Example 1389] | 170 | 880 | 920 | 
20 | C[C@H]1CN(C(c2ccc(F)cc2)c2ccon2)[C@H](CO)CN1c1cc(=O)n(C)c2ccc(C#N)nc12 (single isomer, unassigned) [Example 1391] | 150 | 2000 | 700 | 
21 | C[C@H]1CN(C(c2ccc(F)cc2)c2ccon2)[C@H](CO)CN1c1cc(=O)n(C)c2ccc(C#N)nc12 (single isomer, unassigned) [Example 1392] | 1900 | 3800 | 14000 | 
22 | COC[C@@H]1CN(c2cc(=O)n(C)c3ccc(C#N)nc23)[C@@H](C)CN1C(c1ccc(F)cc1)c1ccon1 (single isomer, unassigned) [Example 1399] | 160 | 450 | 3000 | 
23 | COCCOC[C@@H]1CN(c2cc(=O)n(C)c3ccc(C#N)nc23)[C@@H](C)CN1C(C)c1ccc(OC(F)(F)F)cc1 (single isomer, unassigned) [Example 1405] | 960 | 57 |  | 480

More lines, in order of falling IC50 (human DGKα), values ahead:

Row | IC50 (human DGKα) [nM] | IC50 (human DGKζ) [nM] | Compound | EC50 (Human venous whole blood) [nM] | EC50 (Human venous whole blood; Homo sapiens, 24 h) [nM]
24 | 150 | 29 | CC[C@H]1CN(C(C)c2ccc(C(F)(F)F)cc2F)[C@H](CC)CN1c1cc(=O)n(C)c2ccc(C#N)nc12 (single isomer, unassigned) [Example 1364] | 58 | 
25 | 140 | 2200 | CC(c1ccc(OC(F)(F)F)cc1)N1C[C@H](C)N(c2cc(=O)n(C)c3ccc(C#N)nc23)C[C@H]1CO (single isomer, unassigned) [Example 1386] | 3900 | 
26 | 120 | 16 | CC[C@@H]1CN(c2cc(=O)n(C)c3ccc(C#N)nc23)[C@@H](C)CN1C(C)c1ccc(Cl)cc1F (single isomer, unassigned) [Example 1352] |  | 28
27 | 110 | 15 | CC[C@@H]1CN(c2cc(=O)n(C)c3ccc(C#N)nc23)[C@@H](C)CN1C(C)c1ccc(OC(C)C)cc1 (single isomer, unassigned) [Example 1348] | 29 | 
28 | 97 | 11 | CC[C@@H]1CN(c2cc(=O)n(C)c3ccc(C#N)nc23)[C@@H](C)CN1C(C)c1ccc(OC)cc1 (single isomer, unassigned) [Example 1350] | 30 | 
29 | 62 | 33 | CC[C@H]1CN(C(C)c2ccc(C3CC3)cc2)[C@H](CC)CN1c1cc(=O)n(C)c2ccc(C#N)nc12 (single isomer, unassigned) [Example 1355] | 28 | 
30 | 62 | 12 | COC[C@@H]1CN(c2cc(=O)n(C)c3ccc(C#N)nc23)[C@@H](C)CN1C(c1ccc(F)cc1)c1nc(C2CC2)cs1 (single isomer, unassigned) [Example 1396] | 26 | 
31 | 53 | 37 | COC[C@@H]1CN(c2cc(=O)n(C)c3ccc(C#N)nc23)[C@@H](C)CN1C(c1ccc(F)cc1)c1nc(C2CC2)no1 (single isomer, unassigned) [Example 1394] |  | 450
32 | 53 | 20 | COC[C@@H]1CN(c2cc(=O)n(C)c3ccc(C#N)nc23)[C@@H](C)CN1C(c1ccc(F)cc1)c1ccon1 (single isomer, unassigned) [Example 1400] | 120 | 
33 | 52 | 450 | CC[C@@H]1CN(c2cc(=O)n(C)c3ccc(C#N)nc23)[C@@H](C)CN1C(C)c1ccc(C#N)cc1 (single isomer, unassigned) [Example 1346] | 6000 | 
34 | 52 | 25 | CCC(c1ccc(C2CC2)cc1F)N1C[C@H](CC)N(c2cc(=O)n(C)c3ccc(C#N)nc23)C[C@H]1CC (single isomer, unassigned) [Example 1359] | 44 | 
35 | 29 | 270 | CCC(c1ccc(OC(F)(F)F)cc1F)N1C[C@H](CC)N(c2cc(=O)n(C)c3ccc(C#N)nc23)C[C@H]1C (single isomer, unassigned) [Example 1377] | 2000 | 
36 | 24 | 15 | CC[C@H]1CN(C(C)c2ccc(OC)cc2)[C@H](CC)CN1c1cc(=O)n(C)c2ccc(C#N)nc12 (single isomer, unassigned) [Example 1366] | 11 | 
37 | 21 | 58 | CC[C@H]1CN(C(C)c2ccc(OC(F)(F)F)cc2F)[C@H](CC)CN1c1cc(=O)n(C)c2ccc(C#N)nc12 (single isomer, unassigned) [Example 1371] | 150 | 
38 | 9.5 | 32 | CC[C@H]1CN(C(C)c2ccc(OC(F)F)cc2)[C@H](CC)CN1c1cc(=O)n(C)c2ccc(C#N)nc12 (single isomer, unassigned) [Example 1373] | 95 | 
39 | 8.8 | 160 | CC[C@H]1CN(C(C)c2ccc(OC(F)F)cc2)[C@H](C)CN1c1cc(=O)n(C)c2ccc(C#N)nc12 (single isomer, unassigned) [Example 1379] | 510 | 
